Assay results from PubChem BioAssay (NCI).
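96-well plates; 48 h exposure; 5 concentrations. Endpoints by linear interpolation between flanking doses. Not reached: highest tested concentration assigned. TGI marks complete inhibition of growth.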

tested on: NCI-H23 lung; experiment: inhibition of tumour cell growth, NCI panel, 48 h

`O=c1[nH]cnc(NC2C=C(CO)C(O)C2O)c1[N+](=O)[O-]` (stereo unspecified) and `CC(=O)OCC1OC(n2cc(I)c(=O)[nH]c2=O)C(OC(C)=O)C(OC(C)=O)C1OC(C)=O` (stereo unspecified) cannot be ordered by TGI: > 100 µM for the first, > 100 µM for the second.

`CCOC(=O)C1(C(=O)OCC)COS(=O)OC1` and `CCOC(CNCCC(=O)OC)OCC` cannot be ordered by TGI: > 100 µM for the first, > 10 µM for the second.

Compared with `O=C(NC(COC(=O)C(Cc1ccccc1)NC(=O)c1ccccc1)Cc1ccccc1)c1ccccc1` (stereo unspecified), `CC(O)CCCOC(c1ccccc1)(c1ccccc1)c1ccccc1` (stereo unspecified) is lower in TGI: > 50 µM for the first, 27.6 µM for the second.

`CCOC(=O)c1nc2ccc(C(F)(F)F)cc2nc1Oc1ccc(C#N)cc1` and `CC(=O)O/N=C/c1c2ccccc2cc2ccccc12` cannot be ordered by TGI: > 100 µM for the first, > 100 µM for the second.

`COC(=O)c1cc2c(cc1CC1Cc3cc4c(cc3C1)CCC4)CCC2` and `COc1ccc(CC2c3c(cc(OC)c(OC)c3OC)CCN2C)cc1OC` (stereo unspecified) cannot be ordered by TGI: > 100 µM for the first, > 100 µM for the second.

Going from `CC(C(=O)N1C(=O)N(C(=O)C(C)C(O)c2ccccc2)C2CCCCC21)C(O)c1ccccc1` (stereo unspecified) to `CCN1CCCC(NCc2c3ccccc3c(CNC3CCCN(CC)C3)c3ccccc23)C1` (stereo unspecified), the TGI falls from > 100 µM to 34.8 µM.

`O=C1NCCS(=O)(=O)N[C@@H](CC2=CC=CCC2)C(=O)N2CCCC12` (stereo partly specified) and `C[C@@H](Cl)[C@H]1CCCN(Cc2ccc(Br)cc2)C1` cannot be ordered by TGI: > 100 µM for the first, > 12.5 µM for the second.

Compared with `O=[N+]([O-])c1ccc(/C=C/c2cc(-c3ccccc3)nc3ccc4ccccc4c23)cc1`, `Cc1c(N2C(=O)C(Cl)C2c2ccc(Cl)cc2)c(=O)n(-c2ccccc2)n1C` (stereo unspecified) is lower in TGI: > 100 µM for the first, 85.1 µM for the second.

`COc1ccc(-c2oc(/C=N/NC(N)=S)c([N+](=O)[O-])c2-c2ccc(OC)c(OC)c2)cc1OC` and `COc1cc2nc(-c3cccs3)oc(=O)c2cc1OC` cannot be ordered by TGI: > 100 µM for the first, > 100 µM for the second.

`CCC1=NC(C(F)(F)F)(C(F)(F)F)N=C(N2CCOCC2)O1` and `CCC1=CC2CN3Cn4c(c(COCc5c6n(c7ccccc57)CN5CC7C=C(CC)C5C6(C(=O)OC)C7)c5ccccc54)C(C(=O)OC)(C2)C13` cannot be ordered by TGI: > 100 µM for the first, > 100 µM for the second.

`COc1c(O)c2c3c(c(C)cc(O)c3c1O)C(=O)C(O)(C(C)(C)C(C)=O)C2=O` (stereo unspecified) and `Nc1nc(N)c(N=O)c(Nc2ccc(Br)cc2)n1` cannot be ordered by TGI: > 100 µM for the first, > 100 µM for the second.

tested on: OVCAR-3 ovarian; experiment: inhibition of tumour cell growth, NCI panel, 48 h

`Cc1ccc(CC[P+](=O)CCc2ccc(C)nc2)cn1` and `C=Cc1ccc(C)[n+](C[Si](C)(C)O[Si](C)(C)C[n+]2cc(C=C)ccc2C)c1` cannot be ordered by TGI: > 100 µM for the first, > 100 µM for the second.

`CC12CCC3C(CCC4CC(OC(=O)Cc5ccc(N(CCCl)CCCl)cc5)CCC43C)C1CCC(=O)N2` (stereo unspecified) and `CCN1CCCC(NCc2c3ccccc3c(CNC3CCCN(CC)C3)c3ccccc23)C1` (stereo unspecified) are within 1.5-fold of each other in TGI: 32.1 µM for the first, 26.1 µM for the second.

`O=C(O)c1cc(-c2ccc3c(O)c(O)ccc3c2)ccc1O` and `CC(=O)O/N=C/c1c2ccccc2cc2ccccc12` cannot be ordered by TGI: > 75 µM for the first, > 100 µM for the second.

`CCN(CC)CCCNC(=O)c1ccc([N+](=O)[O-])cc1O` and `O=C(NCCCN(CCCCN(CCCNC(=O)C(F)(F)F)Cc1ccc2ccccc2c1)Cc1ccc2ccccc2c1)C(F)(F)F` cannot be ordered by TGI: > 100 µM for the first, > 100 µM for the second.

`Cc1cn([C@@H]2C[C@H](CO)[C@@H](O)C2)c(=O)[nH]c1=O` and `CC(=O)OCC1OC(n2cc(I)c(=O)[nH]c2=O)C(OC(C)=O)C(OC(C)=O)C1OC(C)=O` (stereo unspecified) cannot be ordered by TGI: > 100 µM for the first, > 100 µM for the second.

`CC1CN=C(N(C(=O)Nc2ccc(F)c(Cl)c2)c2ccccc2)S1` (stereo unspecified) and `Cc1c(N2C(=O)C(Cl)C2c2ccc(Cl)cc2)c(=O)n(-c2ccccc2)n1C` (stereo unspecified) cannot be ordered by TGI: > 100 µM for the first, > 100 µM for the second.

First: O=c1[nH]cnc(NC2C=C(CO)C(O)C2O)c1[N+](=O)[O-] (stereo unspecified)
Second: COc1ccc(-c2oc(/C=N/NC(N)=S)c([N+](=O)[O-])c2-c2ccc(OC)c(OC)c2)cc1OC
The TGI of the first is higher: > 100 µM for the first, 47.9 µM for the second.

`CCOC(=O)C1(C(=O)OCC)COS(=O)OC1` and `CCOC(CNCCC(=O)OC)OCC` cannot be ordered by TGI: 42.1 µM for the first, > 10 µM for the second.

Compared with `O=C(NC(COC(=O)C(Cc1ccccc1)NC(=O)c1ccccc1)Cc1ccccc1)c1ccccc1` (stereo unspecified), `CC(O)CCCOC(c1ccccc1)(c1ccccc1)c1ccccc1` (stereo unspecified) is lower in TGI: > 50 µM for the first, 27.3 µM for the second.

`COC(=O)c1cc2c(cc1CC1Cc3cc4c(cc3C1)CCC4)CCC2` and `COc1ccc(CC2c3c(cc(OC)c(OC)c3OC)CCN2C)cc1OC` (stereo unspecified) cannot be ordered by TGI: > 100 µM for the first, > 100 µM for the second.

`CC(C(=O)N1C(=O)N(C(=O)C(C)C(O)c2ccccc2)C2CCCCC21)C(O)c1ccccc1` (stereo unspecified) and `CCC1=CC2CN3Cn4c(c(COCc5c6n(c7ccccc57)CN5CC7C=C(CC)C5C6(C(=O)OC)C7)c5ccccc54)C(C(=O)OC)(C2)C13` cannot be ordered by TGI: > 100 µM for the first, > 100 µM for the second.

`O=C1NCCS(=O)(=O)N[C@@H](CC2=CC=CCC2)C(=O)N2CCCC12` (stereo partly specified) and `C[C@@H](Cl)[C@H]1CCCN(Cc2ccc(Br)cc2)C1` cannot be ordered by TGI: > 100 µM for the first, > 12.5 µM for the second.

`O=[N+]([O-])c1ccc(/C=C/c2cc(-c3ccccc3)nc3ccc4ccccc4c23)cc1` and `COc1cc2nc(-c3cccs3)oc(=O)c2cc1OC` cannot be ordered by TGI: > 100 µM for the first, > 100 µM for the second.

`CCC1=NC(C(F)(F)F)(C(F)(F)F)N=C(N2CCOCC2)O1` and `COc1c(O)c2c3c(c(C)cc(O)c3c1O)C(=O)C(O)(C(C)(C)C(C)=O)C2=O` (stereo unspecified) cannot be ordered by TGI: > 100 µM for the first, > 100 µM for the second.

Molecule `Nc1nc(N)c(N=O)c(Nc2ccc(Br)cc2)n1` has a TGI of 79.3 µM.

tested on: OVCAR-8 ovarian; experiment: inhibition of tumour cell growth, NCI panel, 48 h

`Cn1ccnc1C(O)(c1nccn1C)c1nccn1C` and `Cc1ccc(CC[P+](=O)CCc2ccc(C)nc2)cn1` cannot be ordered by TGI: > 100 µM for the first, > 100 µM for the second.

Going from `CC12CCC3C(CCC4CC(OC(=O)Cc5ccc(N(CCCl)CCCl)cc5)CCC43C)C1CCC(=O)N2` (stereo unspecified) to `CCN(CC)CCCNC(=O)c1ccc([N+](=O)[O-])cc1O`, the TGI rises from 29.2 µM to > 100 µM.

For `O=C(O)c1cc(-c2ccc3c(O)c(O)ccc3c2)ccc1O`, the TGI was > 75 µM.
